{
  "source": "patent EP4467535A1",
  "about": "“LACTAM PESTICIDAL COMPOUNDS” (priority 2023, dated 2024)",
  "type_in_all_cases": "in vivo",
  "key": {"[1]": {"tested_on": "Southern armyworm (Spodoptera eridania), second instar larvae", "assay": "Action on Southern armyworm (Spodoptera eridania), sprayed lima bean plants", "conditions": "96 h, 4 days after treatment, read-out: mortality in comparison with untreated controls", "experimental": "Example B7: Action on Southern armyworm (Spodoptera eridania), second instar larvae\n(§1) The active compounds were formulated by a Tecan liquid handler in 100% cyclohexanone as a 10,000 ppm solution supplied in tubes. The 10,000 ppm solution was serially diluted in 100% cyclohexanone to make interim solutions. These served as stock solutions for which final dilutions were made by the Tecan in 50% acetone:50% water (v/v) into 10 or 20 mL glass vials. A nonionic surfactant (Kinetic®) was included in the solution at a volume of 0.01% (v/v). The vials were then inserted into an automated electrostatic sprayer equipped with an atomizing nozzle for application to plants/insects.\nLima bean plants (variety Sieva) were grown 2 plants to a pot and selected for treatment at the 1st true leaf stage. Test solutions were sprayed onto the foliage by an automated electrostatic plant sprayer equipped with an atomizing spray nozzle. The plants were dried in the sprayer fume hood and then removed from the sprayer. Each pot was placed into perforated plastic bags with a zip closure. About 10 to 11 armyworm larvae were placed into the bag and the bags zipped closed. Test plants were maintained in a growth room at about 25°C and about 20-40% relative humidity for 4 days, avoiding direct exposure to fluorescent light (24 hour photoperiod) to prevent trapping of heat inside the bags. Mortality and reduced feeding were assessed 4 days after treatment, compared to untreated control plants."}, "[2]": {"tested_on": "Silverleaf whitefly (Bemisia argentifolii) (adults)", "assay": "Action on Silverleaf whitefly (Bemisia argentifolii) adults, sprayed cotton plants", "conditions": "72 h, read-out: mortality in comparison with untreated controls", "experimental": "Example B4: Action on Silverleaf whitefly (Bemisia argentifolii) (adults)\nas §1, with “into 5” for “into 10”, “or 10ml” for “or 20 mL”\nCotton plants at the cotyledon stage (one plant per pot) were sprayed by an automated electrostatic plant sprayer equipped with an atomizing spray nozzle. The plants were dried in the sprayer fume hood and then removed from the sprayer. Each pot was placed into a plastic cup and about 10 to 12 whitefly adults (approximately 3-5 days old) were introduced. The insects were collected using an aspirator and a nontoxic Tygon® tubing connected to a barrier pipette tip. The tip, containing the collected insects, was then gently inserted into the soil containing the treated plant, allowing insects to crawl out of the tip to reach the foliage for feeding. […] Mortality was assessed 3 days after treatment, compared to untreated control plants."}, "[3]": {"tested_on": "Diamond back moth (Plutella xylostella)", "assay": "Action on Diamond back moth (Plutella xylostella), cabbage leaf dip test", "conditions": "foliar, third instar larvae on dipped cabbage leaves, 72 hours after treatment, read-out: mortality in comparison with untreated controls", "experimental": "Example B6: Action on Diamond back moth (Plutella xylostella)\nThe active compound is dissolved at the desired concentration in a mixture of 1:1 (v/v) distilled water: acetone. Surfactant (Kinetic® HV) is added at a rate of 0.01% (v/v). The test solution is prepared at the day of use.\nLeaves of cabbage were dipped in test solution and air-dried. Treated leaves were placed in petri dishes lined with moist filter paper and inoculated with ten third instar larvae. Mortality was recorded 72 hours after treatment. Feeding damages were also recorded using a scale of 0-100%."}, "[4]": {"tested_on": "Tobacco budworm (Heliothis virescens)", "assay": "Action on Tobacco budworm (Heliothis virescens), 96-well microtiter plate insect diet test", "conditions": "120 h, egg and larval mortality visually assessed after 5 days, read-out: mortality in comparison with untreated controls", "experimental": "Example B5: Action on Tobacco budworm (Heliothis virescens)\nFor evaluating control of tobacco budworm (Heliothis virescens) the test unit consisted of 96-well-microtiter plates containing an insect diet and 15-25 H. virescens eggs.\nThe compounds were formulated using a solution containing 75% v/v water and 25% v/v DMSO. Different concentrations of formulated compounds were sprayed onto the insect diet at 10 µl, using a custom-built micro atomizer, at two replications.\nAfter application, microtiter plates were incubated at about 28 + 1°C and about 80 + 5 % relative humidity for 5 days. Egg and larval mortality were then visually assessed."}, "[5]": {"tested_on": "Orchid thrips (Dichromothrips corbetti)", "assay": "Action on Orchid thrips (Dichromothrips corbetti), floral-immersion technique", "conditions": "adult thrips on dipped orchid petals, 72 hours after treatment, read-out: mortality in comparison with untreated controls", "experimental": "Example B2: Action on Orchid thrips (Dichromothrips corbetti)\nDichromothrips corbetti adults used for bioassay were obtained from a colony maintained continuously under laboratory conditions. For testing purposes, the test compound is diluted in a 1:1 mixture of acetone:water (vol:vol), plus Kinetic® HV at a rate of 0.01% v/v.\nThrips potency of each compound was evaluated by using a floral-immersion technique. All petals of individual, intact orchid flowers were dipped into treatment solution and allowed to dryin Petri dishes. Treated petals were placed into individual re-sealable plastic along with about 20 adult thrips. All test arenas were held under continuous light and a temperature of about 28°C for duration of the assay. After 3 days, the numbers of live thrips were counted on each petal. The percent mortality was recorded 72 hours after treatment."}, "[6]": {"tested_on": "Yellow fever mosquito (Aedes aegypti)", "assay": "whole plant or invertebrate", "conditions": "48 h, larval mortality visually assessed after 2 days at 28 ± 1°C, read-out: mortality in comparison with untreated controls", "experimental": "Example B1: Action on Yellow fever mosquito (Aedes aegypti)\nFor evaluating control of yellow fever mosquito (Aedes aegypti) the test unit consisted of 96-well-microtiter plates containing 200µL of tap water per well and 5-15 freshly hatched A. aegypti larvae.\nThe active compounds or mixtures were formulated using a solution containing 75% (v/v) water and 25% (v/v) DMSO. Different concentrations of formulated compounds or mixtures were sprayed onto the insect diet at 2.5µL, using a custom-built micro atomizer, at two replications.\nFor experimental mixtures in these tests identical volumes of both mixing partners at the desired concentrations respectively, were mixed together.\nAfter application, microtiter plates were incubated at 28 ± 1°C, 80 ± 5 % relative humidity for 2 days. Larval mortality was then visually assessed."}, "[7]": {"tested_on": "Boll weevil (Anthonomus grandis)", "assay": "Action on Boll weevil (Anthonomus grandis), 96-well microtiter plate insect diet test", "conditions": "120 h, egg and larval mortality visually assessed after 5 days, read-out: mortality in comparison with untreated controls", "experimental": "Example B3: Action on Boll weevil (Anthonomus grandis )\nFor evaluating control of boll weevil (Anthonomus grandis) the test unit consisted of 96-well-microtiter plates containing an insect diet and 5-10 A. grandis eggs.\nThe compounds were formulated using a solution containing 75% (v/v) water and 25% (v/v) DMSO. Different concentrations of formulated compounds were sprayed onto the insect diet at 5 µL, using a custom-built micro atomizer, at two replications.\nAfter application, microtiter plates were incubated at about 25 + 1°C and about 75 + 5 % relative humidity for 5 days. Egg and larval mortality were then visually assessed."}},
  "data": [
    {"smiles": "Cc1ccc(C(C)C)c(N2C(=O)CS/C2=N\\N=C\\c2ccc(-c3nn(C)c(N4Cc5cc(OC(F)(F)F)ccc5C4=O)c3C)cc2)c1", "note": "[C-2, (2Z)-2-[(E)-[4-[1,4-dimethyl-5-[1-oxo-5-(trifluoromethoxy)isoindolin-2-yl]pyrazol-3-yl]phenyl]methylenehydrazono]-3-(2-isopropyl-5-methyl-phenyl)thiazolidin-4-one]", "values": [
      {"measurement": "mortality at 300 ppm", "setting": "[1]", "value": "≥ 75", "unit": "%"},
      {"measurement": "mortality at 300 ppm", "setting": "[2]", "value": "≥ 75", "unit": "%"},
      {"measurement": "mortality at 300 ppm", "setting": "[3]", "value": "≥ 75", "unit": "%"},
      {"measurement": "mortality at 800 ppm", "setting": "[4]", "value": "≥ 75", "unit": "%"},
      {"measurement": "mortality at 300 ppm", "setting": "[5]", "value": "≥ 75", "unit": "%"},
      {"measurement": "mortality at 800 ppm", "setting": "[6]", "value": "≥ 50", "unit": "%"},
      {"measurement": "mortality at 800 ppm", "setting": "[7]", "value": "≥ 75", "unit": "%"}
    ]}
  ]
}
